Assay results taken from patent publication US20070014736A1, “Methods of delivering corticotroph-derived glycoprotein hormone” (priority 2005, published 2007).

Tests used:
adrenal glands = experiment: Intraperitoneal recombinant CGH for two weeks, adrenal weight; format: in vivo, mice; settings: 0.5 mg/kg Dex i.p. daily, day 15
Text: Summary: Mice were exposed to CGH through infection with adenovirus particles expressing GPHA2 and GPHB5, leading to overexpression and secretion of CGH from the liver of these animals. […] The hypertrophy was apparent in the inner cortical layers, the zona fasciculata and the zona reticularis. Similarly, mice were exposed to CGH through intraperitoneal injection of recombinant CGH protein alone, recombinant CGH protein along with the glucocorticoid Dexamethasone (Dex), Dex alone, or PBS alone daily for two weeks.
Sixteen C57BL/6 female mice at 8 weeks of age were separated into four groups. The first group received daily injections of 0.25 mg/kg of recombinant CGH protein intraperitoneally. The second group received daily injections of PBS using the same procedure. The third group received daily injections of 0.25 mg/kg of CGH plus 0.05 mg/kg Dex and the final group received 0.5 mg/kg Dex, alone. Animals were sacrificed on day 15 and the adrenal glands were isolated and weighed. Example 5 describes the expression and purification of recombinant CGH protein used in this experiment.

[1] = tested on: LPS-induced mild endotoxemia mouse model; experiment: LPS-induced mild endotoxemia mouse model, serum cytokines; format: in vivo, mice
Procedure: An in vivo experiment was designed to examine the effect of CGH in a mouse model of LPS-induced mild endotoxemia. This model mimics acute endotoxemia/sepsis by challenging mice with a low, non-lethal dose of bacterial endotoxin (lipopolysaccharide, LPS). Serum is collected at various timepoints (1-8 hours) after intraperitoneal LPS injection and analyzed for altered expression of a wide variety of pro- and anti-inflammatory cytokines and acute phase proteins that mediate the inflammatory response. The model provides a means to assess the potential anti-inflammatory effects of therapeutic candidates during a robust inflammatory response. To initially assess the model, we measured proinflammatory cytokines in a pilot experiment to collect reference data for the model.
C57B1/6 mice (Charles River Laboratories; 5 mice/group) were treated i.p. with PBS, 0.2 mg/kg CGH in PBS, or 2 mg/kg CGH in PBS 1 hour prior to LPS challenge. The mice were then challenged with 25 ug of LPS i.p. and bled at 1 hour and 4 hours after LPS injection. Serum was analyzed for TNF[…] (1 hour) and IL-6 (4 hours) levels by ELISA.
To determine if CGH would potentiate the effect of a sub-maximal dose of glucocorticoid, groups of 10 C57B1/6 mice each were treated i.p. with PBS, 0.15 or 1.5 mg/kg Dex, 2 mg/kg CGH, or a combination of CGH and low or high doses of Dex, 1 hour prior to injection of 25 ug LPS i.p. As shown in TABLE 3 (Expt #2), either 2 mg/kg CGH or 1.5 mg/kg Dex treatment alone (1 hour prior to LPS) caused a significant drop in serum TNFα levels at 1 hour, as observed in previous experiments. The effects of CGH administered in conjunction with Dex on inhibition of TNFα production were greater than either dose of Dex alone.

[2] = tested on: Delayed Type Hypersensitivity (DTH) reaction; experiment: Delayed Type Hypersensitivity (DTH), change in ear thickness; format: in vivo, mice
[3] = tested on: neutrophil infiltration in the ears; experiment: Neutrophil (Gr-1) histomorphometry of ears in DTH experiment #1; format: in vivo, mice; settings: 1.5 mg/kg Dex i.p. at challenge (day 7)
Procedure: Ears from mice in DTH experiment #1 were analyzed by immunohistochemistry to assess which cell types were most affected by CGH treatment. Ears were fixed in Zinc/Tris buffer (2.3 mM calcium acetate/31.6 mM zinc acetate/36.7 mM zinc chloride in 0.1M Tris-HCL buffer, pH 7.4) for 24 hours at room temperature and stained with antibodies specific for CD4, CD8, CD11c, and Gr-1 (neutrophils). […] Ears were stained using a TechMate 500 autoimmunostainer (Biotech/Ventana) MIP protocol with some modifications. […] This step was followed, after a wash, by biotinylated rabbit anti-rat IgG secondary antibody (Dako, used at 10 ug/ml in PBS with 2% normal rabbit serum and 2% nonfat dry milk) for 45 min. The sections were then washed and treated with HP Block (1.5% H2O2 in 50% methanol) 3 times, 7 min each, followed by 25 min in avidin-biotin complex, 3 times of 4 min each in DAB (Diaminobenzidine), then with Methyl green for 10 min.
From this staining procedure, there was a clear reduction in the number of neutrophils infiltrating the ears of those mice treated with CGH or Dex, compared to the PBS-treated controls. Histomorphometry was performed to obtain the average pixel density of neutrophils per unit length (1 mm) present in the ear samples. Despite a fair amount of variability among each group, there was a significant reduction in neutrophil staining in the Dex and low dose CGH groups, as well as a nearly significant (p=0.0507) reduction in the high dose CGH group (see TABLE 5, p values).

[4] = tested on: differentiated 3T3 L1 adipocytes; experiment: CRE-luciferase reporter assay in differentiated 3T3 L1 adipocytes; format: cell-based, murine
Text: (§1) Differentiated murine 3T3 L1 adipocytes and primary human adipocytes were used to study signal transduction of CGH. 3T3 L1 fibroblasts were differentiated into adipocytes and the cells were transduced with recombinant adenovirus containing a reporter construct, a firefly luciferase gene under the control of cAMP response element (CRE) enhancer sequences. This assay system detects cAMP-mediated gene induction downstream of activation of Gs-coupled G-protein coupled receptors (GPCR's). […] In a separate experiment, undifferentiated 3T3 L1 fibroblasts were transduced with the recombinant adenovirus. […] In another experiment, human primary adipocytes were also transduced with the recombinant adenovirus containing a reporter construct. Treatment of the human adipocytes with isoproterenol produced a 17-fold induction of luciferase expression.
(§2) Cells were cultured at 37° C. in an 8% CO2 humidified incubator. Cells were seeded to collagen-coated 96-well plates (Becton Dickinson, cat. #356407) at a density of 5,000 cells per well. […] Luciferase activity was measured on a microplate luminometer (PerkinElmer Life Sciences, Inc., model LB 96V2R) following automated injection of 40 μl of luciferase assay substrate into each well. […]

human primary adipocytes = experiment: CRE-luciferase reporter assay in human primary adipocytes; format: cell-based
Text: as §1, §2

[5] = molecular target: T1, thyroid-stimulating hormone receptor (TSHR) expressed on BHK cells (BHK-TSHR cells) (UniProt P16473 21-764, limits assumed); experiment: radioligand saturation binding to BHK-TSHR cells, two-site non-linear regression, low-affinity site
T1 construct: whole, on cells; also called TSH receptor
Procedure: (§3) Binding reactions were terminated by removing the binding medium and the cell monolayers were washed three times with 1.0-2.0 ml of ice-cold PBS containing 1.0 mg/ml BSA and twice with 1.0-2.0 ml of ice cold albumin-free PBS. Cells were solubilized in 1.0 ml of 1.0N NaOH for 10 min at room temperature and cell-associated radioactivity was determined in a gamma counter. The measured radioactivity was normalized to cell number that was determined on plates of cells cultured in parallel. Binding data were analyzed by non-linear regression using Prizm 3.0 (GraphPad Software, San Diego, Calif.).

[6] = molecular target: T1, thyroid-stimulating hormone receptor …; experiment: radioligand saturation binding to BHK-TSHR cells, two-site non-linear regression, high-affinity site
Procedure: as §3

TSHR = experiment: Binding of 125I-CGH and 125I-TSH to BHK cells expressing the TSHR; parameters: species or system murine or human
Procedure: as §3, with “BHK cells expressing murine or human TSHRs were cultured in Dulbecco's Modified Eagle's Medium [DMEM (high glucose)] containing 5% fetal bovine serum, 1% Glutamax, 1% sodium pyruvate, 250 nM methotrexate, and Geneticin ( 1/100). […] Plates of cells were placed on ice and washed twice with 1.0-2.0 ml of ice-cold PBS. […] Specific binding was determined in the presence (nonspecific binding) and absence (total binding) of unlabeled rhCGH (25.0 μg/ml) or TSH (10 μg/ml). Binding reactions” for “Binding reactions”

[7] = tested on: parental BHK cells lacking the TSHR; experiment: Binding of radioligands to parental BHK cells; settings: data not shown
Procedure: as §3, with “BHK cells expressing murine or human TSHRs were cultured in Dulbecco's Modified Eagle's Medium [DMEM (high glucose)] containing 5% fetal bovine serum, 1% Glutamax, 1% sodium pyruvate, 250 nM methotrexate, and Geneticin ( 1/100). […] Plates of cells were placed on ice and washed twice with 1.0-2.0 ml of ice-cold PBS. […] Specific binding was determined in the presence (nonspecific binding) and absence (total binding) of unlabeled rhCGH (25.0 μg/ml) or TSH (10 μg/ml). Binding reactions” for “Binding reactions”

human TSHR = molecular target: T2, human TSHR (Homo sapiens, UniProt P16473); experiment: Bioactivity in BHK cells with CRE-luciferase reporter and human TSHR; format: cell-based; settings: CRE-luciferase reporter
T2 construct: expressed in transfected cells; host or cells: BHK cells

[8] = Expt 1, 1.5 mg/kg Dex i.p. at challenge (d7), 24 h
[9] = Expt 2, 1.5 mg/kg Dex i.p. at challenge (d7)
[10] = Expt 3, 1.5 mg/kg Dex i.p. at sensitization (d0-4)

C[C@@H]1C[C@H]2[C@@H]3CCC4=CC(=O)C=C[C@]4(C)[C@@]3(F)[C@@H](O)C[C@]2(C)[C@@]1(O)C(=O)CO [Dex, Dexamethasone, reference compound]
Average adrenal weight/100 g body weight (adrenal glands): 13.12 +/− 0.88
IL-6, 4 hours ([1]; Expt 2, 0.15 mg/kg Dex): 37.1 ± 8.8 ng/mL
TNFα, 1 hour ([1]; Expt 2, 0.15 mg/kg Dex): 1765 ± 589 pg/mL
IL-6, 4 hours ([1]; Expt 2, 1.5 mg/kg Dex): 16.0 ± 4.9 ng/mL
TNFα, 1 hour ([1]; Expt 2, 1.5 mg/kg Dex): 264 ± 138 pg/mL
Change in ear thickness, left ear (PBS) [2, 8]: 0.42 +/− 0.52 ×10^−3 inch
Change in ear thickness, right ear (OVA) [2, 8]: 2.62 +/− 1.18 ×10^−3 inch
Change in ear thickness, left ear (PBS) [2, 9]: 0.23 +/− 0.77 ×10^−3 inch
Change in ear thickness, right ear (OVA) [2, 9]: 2.89 +/− 1.29 ×10^−3 inch
Change in ear thickness, left ear (PBS) [2, 10]: 0.50 +/− 0.54 ×10^−3 inch
Change in ear thickness, right ear (OVA) [2, 10]: 4.38 +/− 1.34 ×10^−3 inch
Pixel density: Neutrophils, left ear (PBS) [3]: 749 +/− 686
Pixel density: Neutrophils, right ear (OVA) [3]: 3651 +/− 2779

CC(C)NCC(O)c1ccc(O)c(O)c1 (centres unmarked) [isoproterenol, reference compound]
induction of luciferase expression [4]: 80 fold
induction of luciferase expression / reporter gene (human primary adipocytes): 17 fold

B1: recombinant human Corticotroph-derived Glycoprotein Hormone (rhCGH), heterodimer of GPHA2 and GPHB5 (ligand)
chain 1: QEAVIPGCHLHPFNVTVRSDRQGTCQGSHVAQACVGHCESSAFPSRYSVLVASGYRHNITSVSQCCTISGLKKVKVQLQCVGSRREELEIFTARACQCDMCRLSRY
chain 2: ASSGNLRTFVGCAVREFTFLAKKPGCRGLRITTDACWGRCETWEKPILEPPYIEAHHRVCTYNETKQVTVKLPNCAPGVDPFYTYPVAIRCDCGACSTATTECETI
notes: correct NH2 termini reported; also called Thyrostimulin
Kd [5]: 2700 µM
Kd [6]: 0.00119 µM

B2: ^125I-CGH: rhCGH radiolabeled with 125I-Bolton Hunter Reagent (protein)
chain 1: QEAVIPGCHLHPFNVTVRSDRQGTCQGSHVAQACVGHCESSAFPSRYSVLVASGYRHNITSVSQCCTISGLKKVKVQLQCVGSRREELEIFTARACQCDMCRLSRY
chain 2: ASSGNLRTFVGCAVREFTFLAKKPGCRGLRITTDACWGRCETWEKPILEPPYIEAHHRVCTYNETKQVTVKLPNCAPGVDPFYTYPVAIRCDCGACSTATTECETI
high affinity sites per cell (TSHR): 86,000 sites per cell
Hill slope (TSHR; specific-binding data): 1.08
Bmax, high-affinity site (TSHR; two-site model): 139±74 fmol/10^6 cells
Bmax, low-affinity site (TSHR; two-site model): 1.6±1.4×10^6 fmol/10^6 cells
binding to parental BHK cells lacking the TSHR [7]: Little or no binding
bioactivity compared to unlabeled counterpart (human TSHR): no significant differences
